Bridge positions count the residues as written; N and C are the ends. Square brackets hold non-standard residues; d marks the D form. Peptide text beside a SMILES is read from it. Gly(cPent) = N[C@H](C(=O)O)C1CCCC1; tBuAla = CC(C)(C)C[C@H](N)C(=O)O; R5 = C=CCCC[C@@](C)(N)C(=O)O; S5 = C=CCCC[C@](C)(N)C(=O)O
Legend:
RSV-mCherry = type: cell-based, HRSV
Description: The inhibitory activity of the peptides of the invention was assessed in HEp-2 cells as described below:
A mCherry-expressing virus recently developed (Rameix-Welti et al., 2014, Nat. Commun., 5:5104) was used to avoid the cumbersome manipulations required with the GFP-expressing virus.
HEp-2 cells were seeded at 5×10^4 cells per well in 96 wells plate the day before the infection. Peptides were 2-fold serially diluted in DMSO (11 dilutions), then further diluted in MEM medium and pre-incubated for 15-20 minutes with 0.2 MOI of RSV-mCherry (Rameix-Welti et al., 2014, supra). Following the washing of Hep-2 cells with MEM without phenol red medium, the cells were incubated with the virus/peptide mixtures for a period of 1 h30-2 h. The cells were washed and further incubated in MEM media containing fetal bovine serum and the same concentration of peptide that was used during the infection step. Plates were incubated 48 h at 37° C. and the mCherry fluorescence was measured using a spectrofluorometer (Tecan infinite M200PRO) with excitation and emission wavelengths of 580 and 620 nm, respectively (expressed in relative fluorescence units RFU). Non-infected HEp-2 cells were used as standards for fluorescence background levels. Each experiment was performed in duplicate and repeated at least twice.

[1] = CD spectroscopy, percentage of helicity; type: physicochemical; settings: CD at 222 nm, 10 mM phosphate buffer pH 7.5, 50 μM peptide, 25° C.
Description: The secondary structure of the peptides was then characterized by circular dichroism (DC) as described below.
The circular dichroism spectra were acquired on a Jasco J-810 and on a Chirascan spectropolarimeter. The samples were prepared in 10 mM phosphate buffer, pH 7.5, at a peptide concentration of 50 μM. Data were recorded at 25° C. by stepscan from 180 nm to 260 nm in a 0.1 cm pathlength quartz cell using 0.2 nm wavelength increments, 1 nm bandwidth and a response time of 0.5 sec. Each spectrum was an average of three measurements and was subtracted from buffer baseline. The data were converted to per residue molar ellipticity units [θ] (deg·cm2·dmol−1·residue−1) and smoothed using the Igor software. The percentage of helicity was calculated as it follows:
[formula] whereby CD222=molar ellipticity at 222 nm in [mdeg], N=number of amino acids in the peptide and C=peptide molar concentration [mol/l].

chymotrypsin = target: T1, chymotrypsin (Bos taurus, UniProt P00766); experiment: Proteolytic stability assay, chymotrypsin; type: in vitro ADME; settings: chymotrypsin (isolated protease); 100 mM Tris-HCl pH 8.0, 10 mM CaCl2, 25° C., LC-MS; read-out: t1/2 (min) Chymotrypsin
T1 construct: purchased Thermo Fisher Scientific
Description: (§1) The compounds according to the invention are tested for their stability in a proteolytic stability assay as described below which is an important parameter to assess for the development of peptide therapeutics. Peptides of the invention 4bb, 4ca, 4a and their unstapled comparative peptide 4, as well as both SAH-RSVFBD isomers were treated with chymotrypsin and trypsin, and analysed by LC/MS to quantify the reaction products over time.
(§2) In vitro proteolytic degradation was measured via LC-MS using an Agilent Infinity 1280 UHPLC system coupled to an Agilent quadruple-time-of-flight (QTOF) 6530 with an Agilent Jet Stream electrospray ionisation (AJS ESI) source (all Agilent Technologies, Waldbronn, Germany). 5 μl of digested sample were injected onto a C18 column (Zorbax Eclipse Plus RRHD, 1.8 μm, 2.1*100 mm, Agilent Technologies, Waldbronn, Germany) equilibrated with solvent A and eluted with a flow rate of 0.4 ml/min over a 5-95% gradient of solvent B in 5 minutes, followed by 1.5 minutes at 95% and 0.5 minutes post-time where solvent A was 95% water, 5% acetonitrile with 0.2% formic acid and solvent B was 5% water, 95% acetonitrile with 0.2% formic acid. The AJS ESI source was operated with a capillary voltage of 4000V and a nozzle voltage of 600V with a drying gas temperature of 325° C. and flow rate of 10 l/min, nebulising gas pressure of 20 psi, and a sheath gas temperature of 300° C. and flow rate of 11l/min. Mass spectra were acquired in the positive ion mode from 100-3200 m/z at a rate of 1 scan per second in extended dynamic range (2 GHz) mode. The fragmentor, skimmer and octopole Radio Frequency voltages were set to 200, 60 and 750 V respectively. Data were acquired and analysed with Agilent MassHunter Workstation (version B.05).
(§3) Peptide digestion was performed as it follows: 10 μl of peptide at 0.29 mM in 50/50 acetonitrile/water were dissolved in 990 μl 100 mM Tris-HCl, pH 8.0 with 10 mM CaCl2. Following measurement of the undigested (to) sample, 10 μl of chymotrypsin at 50 μg/ml in 100 mM Tris-HCl, pH 8.0 with 10 mM CaCl2 were added and the sample was vortexed and placed immediately in the autosampler, set to 25° C. Trypsin digestion was performed as with chymotrypsin except that the buffer was in 50 mM Tris-HCl, pH8. Chymotrypsin and trypsin were purchased from Thermo Fisher Scientific.
(§4) The level of intact peptide was quantified by serial injection over time. Integration of the intact peptide compound chromatogram was performed using the Agilent Molecular Feature Extraction (MFE) algorithm. A plot of the intact peptide MFE peak area over time gave an exponential decay curve, from which the half-life was determined using MatLab […].

trypsin = experiment: Proteolytic stability assay, trypsin; type: in vitro ADME; settings: trypsin (isolated protease), pH 8; 50 mM Tris-HCl pH8, 25° C., LC-MS; read-out: t1/2 (min) Trypsin
Description: as §1, §2, §3, §4

hRSV = settings: literature; cited from earlier work
bRSV = settings: literature; cited from earlier work
circular dichroism = settings: 10 mM phosphate; pH 7.5; 25 °C; 50 uM

CC[C@H](C)[C@H](NC(=O)[C@H](Cc1ccccc1)NC(=O)[C@H](C)NC(=O)[C@H](CC(C)C)NC(=O)[C@H](CO)NC(=O)[C@H](CCC(N)=O)NC(=O)[C@H](CCC(=O)O)NC(C)=O)C(=O)N[C@@H](CCCNC(=N)N)C(=O)N[C@@H](CCCCN)C(=O)N[C@@H](CO)C(=O)N[C@@H](CC(=O)O)C(=O)N[C@@]1(C)CCCC=CCCC[C@@](C)(C(=O)N[C@H](C(N)=O)C(C)C)NC(=O)[C@H](Cc2c[nH]cn2)NC(=O)[C@H](CC(C)C)NC(=O)[C@H](CC(C)C)NC1=O [Peptide 3c, reference compound] (Ac-EQSLAFIRKSD[S5]LLH[S5]V-NH2; staple 12-16)
inhibitory activity in HEp-2 cells (RSV-mCherry; RSV-mCherry): inactive

CC[C@H](C)[C@H](NC(=O)[C@H](CCCCN)NC(=O)[C@H](CCC(=O)O)NC(C)=O)C(=O)N[C@@]1(C)CCCC=CCCC[C@@](C)(C(=O)N[C@@H](Cc2ccccc2)C(=O)N[C@H](C(=O)N[C@@]2(C)CCCC=CCCC[C@@](C)(C(=O)N[C@@H](CC(C)C)C(=O)N[C@@H](CC(C)C)C(=O)N[C@@H](Cc3c[nH]cn3)C(=O)N[C@@H](CC(N)=O)C(=O)N[C@H](C(N)=O)C(C)C)NC(=O)[C@H](CC(=O)O)NC(=O)[C@H](CO)NC(=O)[C@H](CCCCN)NC2=O)[C@@H](C)CC)NC(=O)[C@H](CC(C)C)NC(=O)[C@H](CO)NC(=O)[C@H](CCC(N)=O)NC1=O [Peptide 4bb, EKI Xaa4 QSL Xaa8 FI Xaa11 KSD Xaa15 LLHNV] (Ac-EKI[S5]QSL[S5]FI[S5]KSD[S5]LLHNV-NH2; staple 4-8, 11-15)
% helicity [1]: 52.9% | half-life at 2.9 µM (chymotrypsin): 3010 min | half-life at 2.9 µM (trypsin): 20 min

Cc1ccc(CCCO)c(NCc2ccc3nc(NCCCN4CCOCC4)n(Cc4nc(C)ccc4O)c3c2)c1 [TMC-353121]
activity against hRSV (hRSV): active | activity against bRSV (bRSV): active

CC[C@H](C)[C@@H]1NC(=O)[C@H](Cc2ccccc2)NC(=O)[C@@](C)(NC(=O)[C@H](CC(C)C)NC(=O)[C@H](CO)NC(=O)[C@]2(C)CCCC=CCCC[C@@](C)(NC(=O)[C@H](CCC(=O)O)NC(C)=O)C(=O)N[C@@H]([C@@H](C)CC)C(=O)N[C@@H](CC(N)=O)C(=O)N2)CCCC=CCCC[C@@](C)(C(=O)N[C@@H](CO)C(=O)N[C@@H](CC(=O)O)C(=O)N[C@@H](CCC(=O)O)C(=O)N[C@@H](CC(C)C)C(=O)N[C@@H](CC(C)C)C(=O)N[C@@H](Cc2c[nH]cn2)C(N)=O)NC(=O)[C@H](CCCNC(=N)N)NC1=O [Peptide 4ca18, E Xaa2 IN Xaa5 SL Xaa8 FIR Xaa12 SDELLH] (Ac-E[R5]IN[S5]SL[S5]FIR[S5]SDELLH-NH2; staple 2-5, 8-12)
helicity (circular dichroism): 43% | % helicity [1]: 43%

CC[C@H](C)[C@@H]1NC(=O)[C@H](Cc2ccccc2)NC(=O)[C@@](C)(NC(=O)[C@@H](NC(=O)[C@H](CO)NC(=O)[C@]2(C)CCCC=CCCC[C@@](C)(NC(=O)[C@H](CCC(=O)O)NC(C)=O)C(=O)N[C@@H]([C@@H](C)CC)C(=O)N[C@@H](CC(N)=O)C(=O)N2)C2CCCC2)CCCC=CCCC[C@@](C)(C(=O)N[C@@H](CO)C(=O)N[C@@H](CC(=O)O)C(=O)N[C@@H](CCC(=O)O)C(=O)N[C@@H](CC(C)C)C(=O)N[C@@H](CC(C)C)C(=O)N[C@@H](Cc2c[nH]cn2)C(=O)N[C@@H](CC(N)=O)C(=O)N[C@H](C(N)=O)C(C)C)NC(=O)[C@H](CCCNC(=N)N)NC1=O [Peptide 4ca-var2] (Ac-E[R5]IN[S5]S[Gly(cPent)][S5]FIR[S5]SDELLHNV-NH2; staple 2-5, 8-12)
helicity (circular dichroism): 90.3% | % helicity [1]: 90.3%

CC[C@H](C)[C@@H]1NC(=O)[C@H](Cc2ccccc2)NC(=O)[C@@](C)(NC(=O)[C@H](CC(C)C)NC(=O)[C@H](CO)NC(=O)[C@]2(C)CCCC=CCCC[C@@](C)(NC(=O)[C@H](CCC(=O)O)NC(C)=O)C(=O)N[C@@H]([C@@H](C)CC)C(=O)N[C@@H](CC(N)=O)C(=O)N2)CCCC=CCCC[C@@](C)(C(=O)N[C@@H](CO)C(=O)N[C@@H](CC(=O)O)C(=O)N[C@@H](CCC(=O)O)C(=O)N[C@@H](CC(C)(C)C)C(=O)N[C@@H](CC(C)C)C(=O)N[C@@H](Cc2c[nH]cn2)C(=O)N[C@@H](CC(N)=O)C(=O)N[C@H](C(N)=O)C(C)C)NC(=O)[C@H](CCCNC(=N)N)NC1=O [Peptide 4ca-var4, E Xaa2 IN Xaa5 SL Xaa8 FIR Xaa12 SDE Xaa16LHNV] (Ac-E[R5]IN[S5]SL[S5]FIR[S5]SDE[tBuAla]LHNV-NH2; staple 2-5, 8-12)
helicity (circular dichroism): 98.4% | % helicity [1]: 98.4% | EC50 (RSV-mCherry; HEp-2 cells, 0.2 MOI RSV-mCherry, 48 h): 0.2 ± 0.05 µM

CC[C@H](C)[C@@H]1NC(=O)[C@H](Cc2ccccc2)NC(=O)[C@@](C)(NC(=O)[C@H](CC(C)(C)C)NC(=O)[C@H](CO)NC(=O)[C@]2(C)CCCC=CCCC[C@@](C)(NC(=O)[C@H](CCC(=O)O)NC(C)=O)C(=O)N[C@@H]([C@@H](C)CC)C(=O)N[C@@H](CC(N)=O)C(=O)N2)CCCC=CCCC[C@@](C)(C(=O)N[C@@H](CO)C(=O)N[C@@H](CC(=O)O)C(=O)N[C@@H](CCC(=O)O)C(=O)N[C@@H](CC(C)C)C(=O)N[C@@H](CC(C)C)C(=O)N[C@@H](Cc2c[nH]cn2)C(=O)N[C@@H](CC(N)=O)C(=O)N[C@H](C(N)=O)C(C)C)NC(=O)[C@H](CCCNC(=N)N)NC1=O [Peptide 4ca-var1] (Ac-E[R5]IN[S5]S[tBuAla][S5]FIR[S5]SDELLHNV-NH2; staple 2-5, 8-12)
helicity (circular dichroism): 89.3% | % helicity [1]: 89.3%

O=c1n(Cc2nc3ccccc3n2CCCCO)c2cnccc2n1C1CC1 [BMS-433771]
activity against hRSV (hRSV): active | activity against bRSV (bRSV): active

CC[C@H](C)[C@H](NC(=O)[C@H](CCCCN)NC(=O)[C@H](CCC(=O)O)NC(C)=O)C(=O)N[C@@H](CC(N)=O)C(=O)N[C@@H](CCC(N)=O)C(=O)N[C@@H](CO)C(=O)N[C@@H](CC(C)C)C(=O)N[C@@]1(C)CCCC=CCCC[C@@](C)(C(=O)N[C@@H](CO)C(=O)N[C@@H](CC(=O)O)C(=O)N[C@@]2(C)CCCC=CCCC[C@@](C)(C(=O)N[C@H](C(N)=O)C(C)C)NC(=O)[C@H](Cc3c[nH]cn3)NC(=O)[C@H](CC(C)C)NC(=O)[C@H](CC(C)C)NC2=O)NC(=O)[C@H](CCCNC(=N)N)NC(=O)[C@H]([C@@H](C)CC)NC(=O)[C@H](Cc2ccccc2)NC1=O [Peptide 4a, EKINQSL Xaa8 FIR Xaa12 SD Xaa15 LLH Xaa19 V] (Ac-EKINQSL[S5]FIR[S5]SD[S5]LLH[S5]V-NH2; staple 8-12, 15-19)
% helicity [1]: 23.5% | half-life at 2.9 µM (chymotrypsin): 4480 min | half-life at 2.9 µM (trypsin): 76 min

— patent US11299518B2, “Fusion respiratory syncytial virus inhibitors and use thereof” (priority 2016, dated 2022)
